Measured values: ChEMBL document CHEMBL3421607, “Design, synthesis and antibacterial activity of cinnamaldehyde derivatives as inhibitors of the bacterial cell division protein FtsZ” (Eur J Med Chem, 2015)
≈ marks a conversion by molar mass, not a printed value.

Key:
Format in all cases: functional
Staphylococcus aureus [1] = assay: microbe, parasite or virus in culture; details: ATCC 29213, 24 h
Description: Antibacterial activity against methicillin-resistant Staphylococcus aureus ATCC 29213 after 24 hrs by broth microdilution method

Escherichia coli [2] = assay: microbe, parasite or virus in culture; details: ATCC 25922, 24 h
Description: Antibacterial activity against penicillin-susceptible Escherichia coli ATCC 25922 after 24 hrs by broth microdilution method

Pseudomonas aeruginosa [3] = assay: microbe, parasite or virus in culture; details: ATCC 27853, 24 h
Bacillus subtilis [4] = assay: microbe, parasite or virus in culture; details: ATCC 9372, 24 h
Description: Antibacterial activity against penicillin-susceptible Bacillus subtilis ATCC 9372 after 24 hrs by broth microdilution method

Bacillus subtilis [5] = assay: microbe, parasite or virus in culture; details: ATCC 9372, 5 h
Description: Inhibition of cell division in penicillin-susceptible Bacillus subtilis ATCC 9372 assessed as filamentation after 5 hrs by phase contrast microscopy

Staphylococcus aureus [6] = assay: microbe, parasite or virus in culture; details: ATCC 25923, 24 h
Description: Antibacterial activity against penicillin-susceptible Staphylococcus aureus ATCC 25923 after 24 hrs by broth microdilution method

Streptococcus pyogenes [7] = assay: Antibacterial activity against penicillin-susceptible Streptococcus pyogenes clinical isolates after 24 hrs by broth microdilution method
Escherichia coli [8] = assay: microbe, parasite or virus in culture; details: ATCC 25922, 5 h
Description: Inhibition of cell division in penicillin-susceptible Escherichia coli ATCC 25922 assessed as filamentation after 5 hrs by phase contrast microscopy

Staphylococcus aureus [9] = assay: Antibacterial activity against penicillin-resistant Staphylococcus aureus clinical isolates after 24 hrs by broth microdilution method
Staphylococcus aureus [10] = assay: microbe, parasite or virus in culture; details: ATCC 25923, 5 h
Description: Inhibition of cell division in penicillin-susceptible Staphylococcus aureus ATCC 25923 assessed as ballooning after 5 hrs by phase contrast microscopy

Pseudomonas aeruginosa [11] = assay: microbe, parasite or virus in culture; details: ATCC 27853, 5 h
Description: Inhibition of cell division in penicillin-susceptible Pseudomonas aeruginosa ATCC 27853 assessed as filamentation after 5 hrs by phase contrast microscopy

[12] = test system: Staphylococcus epidermidis; assay: Antibacterial activity against penicillin-resistant Staphylococcus epidermidis clinical isolates after 24 hrs by broth microdilution method
Streptococcus pyogenes [13] = assay: Antibacterial activity against penicillin-resistant Streptococcus pyogenes clinical isolates after 24 hrs by broth microdilution method

| Compound | MIC (Staphylococcus aureus [1]) [µg/mL] | MIC (Escherichia coli [2]) [µg/mL] | MIC (Pseudomonas aeruginosa [3]) [µg/mL] | MIC (Bacillus subtilis [4]) [µg/mL] | MIC (Bacillus subtilis [5]) [µg/mL] | MIC (Staphylococcus aureus [6]) [µg/mL] | MIC (Streptococcus pyogenes [7]) [µg/mL] | MIC (Escherichia coli [8]) [µg/mL] | MIC (Staphylococcus aureus [9]) [µg/mL] | MIC (Staphylococcus aureus [10]) [µg/mL] | MIC (Pseudomonas aeruginosa [11]) [µg/mL] | MIC [12] [µg/mL] | MIC (Streptococcus pyogenes [13]) [µg/mL] |
| --- | --- | --- | --- | --- | --- | --- | --- | --- | --- | --- | --- | --- | --- |
| COc1cc(/C=C/C(=O)CC(=O)/C=C/c2ccc(O)c(OC)c2)ccc1O [CURCUMIN] | > 128 | > 128 | > 128 | 32 (≈ 86.9 µM) | 16 (≈ 43.4 µM) | > 128 | > 128 | > 128 | > 128 | > 128 | – | – | – |
| CC(C)NC(=O)/C=C/c1ccc([N+](=O)[O-])cc1 | > 128 | > 128 | > 128 | > 128 | > 128 | > 128 | – | > 128 | > 128 | > 128 | > 128 | – | – |
| Cc1nc2ccccc2n1C(=O)/C=C/c1ccc([N+](=O)[O-])cc1 | > 128 | 128 (≈ 417 µM) | 128 (≈ 417 µM) | 128 (≈ 417 µM) | > 128 | 16 (≈ 52.1 µM) | 64 (≈ 208 µM) | > 128 | 128 (≈ 417 µM) | 0.5 (≈ 1.63 µM) | > 128 | 128 (≈ 417 µM) | 16 (≈ 52.1 µM) |
| COc1cc(/C=C/C(=O)N2CCOCC2)cc(OC)c1OC | 128 (≈ 416 µM) | 128 (≈ 416 µM) | > 128 | 128 (≈ 416 µM) | 128 (≈ 416 µM) | 64 (≈ 208 µM) | > 128 | 128 (≈ 416 µM) | > 128 | 16 (≈ 52.1 µM) | > 128 | > 128 | – |
| CC(C)NC(=O)/C=C/c1ccc(Cl)cc1Cl [3-(2,4-DICHLOROPHENYL)-N-ISOPROPYLACRYLAMIDE] | > 128 | 128 (≈ 496 µM) | 128 (≈ 496 µM) | > 128 | 32 (≈ 124 µM) | > 128 | 64 (≈ 248 µM) | > 128 | > 128 | 32 (≈ 124 µM) | > 128 | > 128 | > 128 |
| CCCCNC(=O)/C=C/c1ccc(C#N)cc1 | > 128 | > 128 | > 128 | > 128 | > 128 | > 128 | – | > 128 | > 128 | > 128 | > 128 | – | – |
| COc1ccc(/C=C/C(=O)n2c(C)nc3ccccc32)cc1OC | > 128 | 128 (≈ 397 µM) | 128 (≈ 397 µM) | > 128 | > 128 | > 128 | 64 (≈ 199 µM) | 128 (≈ 397 µM) | > 128 | 64 (≈ 199 µM) | > 128 | > 128 | 64 (≈ 199 µM) |
| COc1ccccc1/C=C/C(=O)N1CCN(C(c2ccccc2)c2ccc(Cl)cc2)CC1 (centres undefined) | > 128 | > 128 | > 128 | > 128 | > 128 | > 128 | > 128 | > 128 | > 128 | 64 (≈ 143 µM) | > 128 | > 128 | – |
| C#CCNC(=O)/C=C/c1ccc([N+](=O)[O-])cc1 | > 128 | > 128 | > 128 | > 128 | > 128 | > 128 | – | > 128 | > 128 | > 128 | > 128 | – | – |
| COc1ccccc1/C=C/C(=O)n1c(C)nc2ccccc21 | 128 (≈ 438 µM) | 128 (≈ 438 µM) | 128 (≈ 438 µM) | 128 (≈ 438 µM) | > 128 | 64 (≈ 219 µM) | 128 (≈ 438 µM) | 128 (≈ 438 µM) | 64 (≈ 219 µM) | > 128 | 128 (≈ 438 µM) | 16 (≈ 54.7 µM) | > 128 |
| O=C(O)c1cn(C2CC2)c2cc(N3CCNCC3)c(F)cc2c1=O [CIPROFLOXACIN] | 4 (≈ 12.1 µM) | – | 4 (≈ 12.1 µM) | 8 (≈ 24.1 µM) | > 128 | 8 (≈ 24.1 µM) | 8 (≈ 24.1 µM) | > 128 | 8 (≈ 24.1 µM) | > 128 | > 128 | > 128 | > 128 |
| O=C(/C=C/c1ccccc1Cl)N1CCN(C(c2ccccc2)c2ccc(Cl)cc2)CC1 (centres undefined) | > 128 | > 128 | > 128 | > 128 | > 128 | > 128 | > 128 | > 128 | > 128 | > 128 | 128 (≈ 284 µM) | > 128 | – |
| COc1cc(/C=C/C(=O)N(C)C)cc(OC)c1OC | > 128 | 128 (≈ 482 µM) | 128 (≈ 482 µM) | 128 (≈ 482 µM) | > 128 | > 128 | > 128 | 128 (≈ 482 µM) | > 128 | > 128 | 128 (≈ 482 µM) | > 128 | – |
| CCCCNC(=O)/C=C/c1ccc(OC)c(OC)c1 | > 128 | > 128 | > 128 | > 128 | > 128 | > 128 | – | > 128 | > 128 | > 128 | > 128 | – | – |
| CCCCNC(=O)/C=C/c1ccc(Cl)cc1Cl [N-BUTYL-3-(2,4-DICHLOROPHENYL)ACRYLAMIDE] | > 128 | > 128 | 128 (≈ 470 µM) | > 128 | > 128 | > 128 | 64 (≈ 235 µM) | > 128 | > 128 | > 128 | > 128 | > 128 | 128 (≈ 470 µM) |
| COc1ccc(NC(=O)/C=C/c2ccc(Cl)cc2Cl)cc1 | > 128 | > 128 | > 128 | > 128 | > 128 | > 128 | 128 (≈ 397 µM) | > 128 | > 128 | > 128 | > 128 | > 128 | 128 (≈ 397 µM) |
| O=C(/C=C/c1ccc(F)cc1)N1CCOCC1 | > 128 | 128 (≈ 544 µM) | 128 (≈ 544 µM) | 128 (≈ 544 µM) | 128 (≈ 544 µM) | > 128 | > 128 | 128 (≈ 544 µM) | > 128 | > 128 | 128 (≈ 544 µM) | > 128 | – |
| C#CCNC(=O)/C=C/c1ccc(OC)c(OC)c1 | > 128 | > 128 | > 128 | > 128 | > 128 | > 128 | – | > 128 | > 128 | > 128 | > 128 | – | – |
| COc1ccc(/C=C/C(=O)n2c(C)nc3ccccc32)cc1 | 128 (≈ 438 µM) | 128 (≈ 438 µM) | 128 (≈ 438 µM) | 128 (≈ 438 µM) | > 128 | 128 (≈ 438 µM) | > 128 | > 128 | 64 (≈ 219 µM) | > 128 | > 128 | 32 (≈ 109 µM) | – |
| CCN(CC)C(=O)/C=C/c1cc(OC)c(OC)c(OC)c1 | > 128 | 128 (≈ 436 µM) | 128 (≈ 436 µM) | 128 (≈ 436 µM) | 128 (≈ 436 µM) | 64 (≈ 218 µM) | > 128 | 128 (≈ 436 µM) | 64 (≈ 218 µM) | 32 (≈ 109 µM) | 128 (≈ 436 µM) | > 128 | – |
| CCN(CC)C(=O)/C=C/c1ccc(OC)c(OC)c1 | > 128 | 128 (≈ 486 µM) | > 128 | 128 (≈ 486 µM) | 128 (≈ 486 µM) | > 128 | > 128 | 128 (≈ 486 µM) | > 128 | 64 (≈ 243 µM) | 128 (≈ 486 µM) | > 128 | – |
| CCCCNC(=O)/C=C/c1ccc([N+](=O)[O-])cc1 | > 128 | > 128 | > 128 | > 128 | > 128 | > 128 | – | > 128 | > 128 | > 128 | > 128 | – | – |
| O=C(/C=C/c1ccc(Cl)cc1Cl)N1CCN(C(c2ccccc2)c2ccc(Cl)cc2)CC1 (centres undefined) | > 128 | > 128 | > 128 | > 128 | 64 (≈ 132 µM) | > 128 | > 128 | > 128 | > 128 | 64 (≈ 132 µM) | > 128 | > 128 | – |
| CCCNC(=O)/C=C/c1ccc([N+](=O)[O-])cc1 | > 128 | > 128 | > 128 | > 128 | > 128 | > 128 | – | > 128 | > 128 | > 128 | > 128 | – | – |
| O=C(O)/C=C/c1ccccc1 [CINNAMIC ACID] | > 128 | > 128 | > 128 | > 128 | > 128 | > 128 | > 128 | > 128 | > 128 | > 128 | > 128 | > 128 | – |
| COc1ccc(/C=C/C(=O)N2CCOCC2)cc1OC | > 128 | 128 (≈ 462 µM) | > 128 | 128 (≈ 462 µM) | > 128 | > 128 | > 128 | 128 (≈ 462 µM) | > 128 | > 128 | > 128 | > 128 | – |
| COc1ccc(/C=C/C(=O)N(C)C)cc1OC | > 128 | 128 (≈ 544 µM) | 128 (≈ 544 µM) | 128 (≈ 544 µM) | > 128 | 32 (≈ 136 µM) | > 128 | 128 (≈ 544 µM) | 64 (≈ 272 µM) | 8 (≈ 34 µM) | > 128 | > 128 | – |
